Experimental data as given in patent publication US20230329236A1, “HERBICIDAL PYRIMIDINE DERIVATIVES” (MoA Technology Limited, priority 2020, published 2023).

Key:
Conditions in all cases: 336 h, Table 3, post-emergence, 14±1 days post application
Veronica persica (VERPE) = assay: Post-emergence glasshouse test, visual injury, VERPE; type: in vivo
Description: (§1) Seeds of a variety of test species are grown in a sandy loam soil mixture, Lolium multiflorum (LOLMU), Amaranthus retroflexus (AMARE), Echinochloa crus-gaffi (ECHCG), Veronica persica (VERPE), Glycine max (GLXMA), Oryza sativa (ORYSA), Zea mays (ZEAMX), spring wheat (TRZAS), Ipomoea hederacea (IPOHE), Ipomoea purpurea (PHBPU), Stellaria media (STEME), Solanum nigrum (SOLNI), Digitaria sanguinalis (DIGSA), Setaria italica (SETIT), Alopecurus myosuroides (ALOMY) and Avena fatua (AVEFA).
(§2) After sowing, at growth stage BBCH 12-14 (post-emergence), the plants are sprayed with an aqueous spray solution derived from the formulation of the technical active ingredient in acetone/water (50:50) solution containing 0.5% Tween 20 (polyoxyethlyene sorbitan monolaureate, CAS RN 9005-64-5). The test compounds are applied at the required concentration of active ingredient in g/ha. The test plants are then grown in a glasshouse under controlled environmental conditions and watered regularly as required. After 14±1 days post application (for post-emergence test), the test is evaluated by assessing the percentage damage caused to the plants in comparison with the untreated plots. The biological activities for post-emergence testing are shown below (Table 3 and Table 4) as a % visual injury.

[1] = system: Amaranthus retroflexus (AMARE); assay: Post-emergence glasshouse test, visual injury, AMARE; type: in vivo
Description: as §1, §2

[2] = system: Lolium multiflorum (LOLMU); assay: Post-emergence glasshouse test, visual injury, LOLMU; type: in vivo
Description: as §1, §2

[3] = system: Echinochloa crus-gaffi (ECHCG); assay: Post-emergence glasshouse test, visual injury, ECHCG; type: in vivo, Echinochloa crus-galli
Description: as §1, §2

SMILES | pest or weed control at 500 g/ha (Veronica persica (VERPE)) [%] | pest or weed control at 500 g/ha [1] [%] | pest or weed control at 500 g/ha [2] [%] | pest or weed control at 500 g/ha [3] [%] | pest or weed control at 125 g/ha (Veronica persica (VERPE)) [%] | pest or weed control at 125 g/ha [1] [%] | pest or weed control at 125 g/ha [2] [%] | pest or weed control at 125 g/ha [3] [%]
Cc1cc(-c2cnc(NCc3ccc(F)cc3)nc2C(C)(C)C)on1 [Compound 47] | 80 | 40 | 0 | 50 |  |  |  | 
Cc1cc(-c2cnc(NC3CCCC3)nc2-c2ccc(C)o2)on1 [Compound 24] | 0 | 50 | 0 | 70 |  |  |  | 
Cc1cc(-c2cnc(N3Cc4ccccc4C3=N)nc2C(C)C)on1 [Compound 121] |  |  |  |  | 0 | 30 | 0 | 20
Cc1cc(-c2cnc(N3CCNC(=O)C3)nc2-c2ccc(C)o2)on1 [Compound 37] | 0 | 50 | 0 | 0 |  |  |  | 
Cc1cc(-c2cnc(N(C)C3CCCC3)nc2C(C)C)on1 [Compound 9] |  |  |  |  | 80 | 95 | 60 | 60
Cc1cc(-c2cnc(NCCN3CCCC3=O)nc2C(C)C)on1 [Compound 42] | 60 | 70 | 10 | 50 |  |  |  | 
Cc1cc(-c2cnc(N3CCCCC3)nc2C2CC2)on1 [Compound 31] | 0 | 70 | 0 | 30 |  |  |  | 
Cc1cc(-c2cnc(NC3CCCC3)nc2C(F)(F)F)on1 [Compound 91] |  |  |  |  | 99 | 90 | 80 | 95
Cc1cc(-c2cnc(N3CCN(c4ncccn4)CC3)nc2-c2ccc(C)o2)on1 [Compound 89] |  |  |  |  | 5 | 0 | 5 | 0
C=COCCCNc1ncc(-c2cc(C)no2)c(C(C)(C)C)n1 [Compound 33] | 0 | 80 | 0 | 70 |  |  |  | 
Cc1cc(-c2cnc(N3CCN(S(=O)(=O)N(C)C)CC3)nc2C2CC2)on1 [Compound 53] | 0 | 20 | 20 | 50 |  |  |  | 
Cc1cc(-c2cnc(NC3CCOCC3)nc2C(F)(F)F)on1 [Compound 116] |  |  |  |  | 95 | 0 | 0 | 0
Cc1cc(-c2cnc(N3CCSCC3)nc2-c2ccc(C)o2)on1 [Compound 90] |  |  |  |  | 40 | 30 | 0 | 30
Cc1cc(-c2cnc(N3CCC(C(N)=O)CC3)nc2C2CC2)on1 [Compound 64] | 0 | 60 | 30 | 60 |  |  |  | 
Cc1cc(-c2cnc(NC3CCCC3)nc2C)on1 [Compound 92] |  |  |  |  | 70 | 90 | 60 | 50
Cc1cc(-c2cnc(N3CCCCC3)nc2-c2ccc(C)o2)on1 [Compound 79] | 0 | 90 | 30 | 60 |  |  |  | 
COc1ccc(CNc2ncc(-c3cc(C)no3)c(C3CC3)n2)cc1OC [Compound 52] | 70 | 80 | 40 | 70 |  |  |  | 
Cc1cc(-c2cnc(NCc3cccnc3)nc2-c2ccc(C)o2)on1 [Compound 22] | 60 | 60 | 0 | 50 |  |  |  | 
